What follows are compounds tested against Kv1.3 potassium channel (Homo sapiens (Human), UniProt P22001) (assay: Kv1.3 potassium channel blocker activity, automated whole-cell patch clamp in CHO-K1 cells stably expressing Kv1.3). Details: Patchliner patch clamp.
Type: cell-based
Protocol: Example 21. Evaluation of Kv1.3 Potassium Channel Blocker Activities
This assay is used to evaluate the disclosed compounds' activities as Kv1.3 potassium channel blockers.
CHO-K1 cells stably expressing Kv1.3 were grown in DMEM containing 10% heat-inactivated FBS, 1 mM sodium pyruvate, 2 mM L-glutamine, and G418 (500 μg/ml). Cells were grown in culture flasks at 37° C. in a 5% C02-humidified incubator.
The cells were bathed in an extracellular solution containing 140 mM NaCl, 4 mM KCl, 2 mM CaCl2), 1 mM MgCl2, 5 mM glucose, 10 mM HEPES; pH adjusted to 7.4 with NaOH; 295-305 mOsm. The internal solution contained 50 mM KCl, 10 mM NaCl, 60 mM KF, 20 mM EGTA, 10 mM HEPES; pH adjusted to 7.2 with KOH; 285 mOsm. All compounds were dissolved in DMSO at 30 mM. Compound stock solutions were freshly diluted with external solution to concentrations of 30 nM, 100 nM, 300 nM, 1 μM, 3 μM, 10 μM, 30 μM and 100 μM. The highest content of DMSO (0.3%) was present in 100 μM.
The currents were evoked by applying 100 ms depolarizing pulses from −90 mV (holding potential) to +40 mV were applied with 0.1 Hz frequency. Control (compound-free) and compound pulse trains for each compound concentration applied contained 20 pulses. 10-second breaks were used between pulse trains (see Table A below).
Whole-cell current recordings and compound application were enabled by means of an automated patch clamp platform Patchliner (Nanion Technologies GmbH). EPC 10 patch clamp amplifier (HEKA Elektronik Dr. Schulze GmbH) along with Patchmaster software (HEKA Elektronik Dr. Schulze GmbH) was used for data acquisition. Data were sampled at 10 kHz without filtering. Passive leak currents were subtracted online using a P/4 procedure (HEKA Elektronik Dr. Schulze GmbH). Increasing compound concentrations were applied consecutively to the same cell without washouts in between. Total compound incubation time before the next pulse train was not longer than 10 seconds. Peak current inhibition was observed during compound equilibration.
AUC and peak values were obtained with Patchmaster (HEKA Elektronik Dr. Schulze GmbH). To determine IC50, the last single pulse in the pulse train corresponding to a given compound concentration was used. Obtained AUC and peak values in the presence of compound were normalized to control values in the absence of compound. Using Origin (OridinLab), IC50 was derived from data fit to Hill equation: Icompound/Icontrol=(100-A)/(1+([compound]/IC50)nH)+A, where IC50 value is the concentration at which current inhibition is half-maximal, [compound] is the applied compound concentration, A is the fraction of current that is not blocked and nH is the Hill coefficient.

Kv1.3 potassium channel, sequence (P22001 whole entry): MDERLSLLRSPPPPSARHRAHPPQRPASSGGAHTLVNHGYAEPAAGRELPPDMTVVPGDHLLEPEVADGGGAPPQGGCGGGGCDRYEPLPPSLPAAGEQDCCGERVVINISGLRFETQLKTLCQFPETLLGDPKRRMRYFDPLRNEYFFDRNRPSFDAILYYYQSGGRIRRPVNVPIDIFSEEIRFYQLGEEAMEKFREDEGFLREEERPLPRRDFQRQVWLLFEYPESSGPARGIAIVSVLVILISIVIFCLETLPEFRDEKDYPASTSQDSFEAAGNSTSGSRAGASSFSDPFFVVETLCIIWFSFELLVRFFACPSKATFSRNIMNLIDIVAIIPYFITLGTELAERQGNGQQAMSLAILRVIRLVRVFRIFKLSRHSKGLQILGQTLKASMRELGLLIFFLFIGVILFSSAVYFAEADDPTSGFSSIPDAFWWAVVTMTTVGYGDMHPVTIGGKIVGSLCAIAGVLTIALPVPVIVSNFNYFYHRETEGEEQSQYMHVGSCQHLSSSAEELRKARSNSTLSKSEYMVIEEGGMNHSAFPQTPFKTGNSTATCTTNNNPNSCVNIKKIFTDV

Row | IC50 [µM] | Structure (SMILES)
1 | < 1 | CC[C@H](C(N)=O)[C@@H]1CN[C@@H](c2c(O)ccc(Cl)c2Cl)C1 (single isomer, unassigned) [Compound 72]
2 | < 1 | CC[C@@H](C(N)=O)[C@@H]1CN[C@@H](c2c(O)ccc(Cl)c2Cl)C1 (single isomer, unassigned) [Compound 73]
3 | < 0.1 | NC(=O)[C@H](C1CC1)[C@H]1CN[C@@H](c2c(O)ccc(Cl)c2Cl)C1 (single isomer, unassigned) [Compound 78]
4 | < 1 | NC(=O)[C@@H](C1CC1)[C@H]1CN[C@@H](c2c(O)ccc(Cl)c2Cl)C1 (single isomer, unassigned) [Compound 79]
5 | < 1 | CC1(CO)CN(C(=O)C[C@H]2CN[C@@H](c3c(O)ccc(Cl)c3Cl)C2)C1 [Compound 69, 2-((3S,5R)-5-(2,3-dichloro-6-hydroxyphenyl)pyrrolidin-3-yl)-1-(3-(hydroxymethyl)-3-methylazetidin-1-yl)ethan-1-one]
6 | < 1 | O=C(C[C@H]1CN[C@@H](c2c(O)ccc(Cl)c2Cl)C1)N1CC(CO)(CO)C1 [Compound 70, 1-(3,3-bis(hydroxymethyl)azetidin-1-yl)-2-((3S,5R)-5-(2,3-dichloro-6-hydroxyphenyl)pyrrolidin-3-yl)ethan-1-one]

The next lines start with the compound.

Row | Structure (SMILES) | IC50 [µM]
7 | NC(=O)C[C@@H]1CN[C@@H](c2c(O)ccc(Cl)c2Cl)C1 [Compound 32, 2-[(3R,5R)-5-(2,3-dichloro-6-hydroxyphenyl)pyrrolidin-3-yl]acetamide] | < 1
8 | C[C@@]1(CC(N)=O)CN[C@@H](c2c(O)ccc(Cl)c2Cl)C1 [Compound 50, 2-[5R-(2,3-dichloro-6-hydroxyphenyl)-3-methylpyrrolidin-3-yl]acetamide] | < 1
9 | CC(C)(C(N)=O)[C@@H]1CN[C@@H](c2c(O)ccc(Cl)c2Cl)C1 [Compound 51, 2-[(3R,5R)-5-(2,3-dichloro-6-hydroxyphenyl)pyrrolidin-3-yl]-2-methylpropanamide] | < 1
10 | O=C(C[C@H]1CN[C@@H](c2c(O)ccc(Cl)c2Cl)C1)N1CCC(O)CC1 [Compound 57, 2-((3S,5R)-5-(2,3-dichloro-6-hydroxyphenyl)pyrrolidin-3-yl)-1-(4-hydroxypiperidin-1-yl)ethan-1-one] | < 1
11 | O=C(C[C@H]1CN[C@@H](c2c(O)ccc(Cl)c2Cl)C1)N1CCC[C@H](O)C1 [Compound 59, 2-((3S,5R)-5-(2,3-dichloro-6-hydroxyphenyl)pyrrolidin-3-yl)-1-((S)-3-hydroxypiperidin-1-yl)ethan-1-one] | < 1
12 | O=C(C[C@H]1CN[C@@H](c2c(O)ccc(Cl)c2Cl)C1)N1CC(CO)C1 [Compound 60, 2-((3S,5R)-5-(2,3-dichloro-6-hydroxyphenyl)pyrrolidin-3-yl)-1-(3-(hydroxymethyl)azetidin-1-yl)ethan-1-one] | < 1
13 | C[C@@H](CO)NC(=O)C[C@H]1CN[C@@H](c2c(O)ccc(Cl)c2Cl)C1 [Compound 62, 2-((3S,5R)-5-(2,3-dichloro-6-hydroxyphenyl)pyrrolidin-3-yl)-N-((S)-1-hydroxypropan-2-yl)acetamide] | < 1
